From ChEMBL document CHEMBL1153475, “Novel indoline-based acyl-CoA: cholesterol acyltransferase inhibitor: Effects of introducing a methanesulfonamide group on physicochemical properties and biological activities” (Bioorg Med Chem, 2009) come the findings set out here.

The structures appear in SMILES notation.

The test system of series [1] is THP-1. As to the kind of experiment: Anti-foam cell formation activity in human THP1 cells assessed as inhibition of esterified cholesterol accumulation after 24 hrs in presence of Japanese white rabbit high-cholesterol serum. It is filed as functional, cell-based. The settings on record: THP-1, 24 h.
In series [2] the target is T1, Acyl-CoA:cholesterol acyltransferase (Oryctolagus cuniculus, UniProt Q95214).
T1 sequence (Q95214 whole entry): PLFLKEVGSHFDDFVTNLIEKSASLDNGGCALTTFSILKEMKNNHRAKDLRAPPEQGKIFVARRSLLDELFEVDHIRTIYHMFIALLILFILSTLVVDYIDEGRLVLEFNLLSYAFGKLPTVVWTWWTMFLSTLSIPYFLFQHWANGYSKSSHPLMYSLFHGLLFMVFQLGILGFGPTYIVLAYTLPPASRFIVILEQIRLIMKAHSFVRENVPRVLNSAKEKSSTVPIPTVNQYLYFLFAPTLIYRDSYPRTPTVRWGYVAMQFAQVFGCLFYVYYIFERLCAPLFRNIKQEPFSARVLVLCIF
As to the kind of experiment: Inhibition of ACAT in Japanese White rabbit liver microsomes. Also noted: species or system Microsome. On the technique in general: Liver microsomes are a subcellular fraction often used to study metabolism.

Series [3] in a line: Cmax in Sprague-Dawley rat at 10 mg/kg, po. It is filed as ADME, organism-based. Also noted: dose 10 mg/kg, route oral. The conditions noted are these: in vivo.
Series [4] is described as follows: Tmax in Sprague-Dawley rat at 10 mg/kg, po. It is filed as ADME, organism-based. Also noted: dose 10 mg/kg, route oral. The settings on record: in vivo.
Series [5] can be described thus: Half life in Sprague-Dawley rat at 10 mg/kg, po. It counts as ADME, organism-based. Also noted: dose 10 mg/kg, route oral. The settings on record: in vivo.
Series [6] in a line: AUC (0 to 24 hrs) in Sprague-Dawley rat at 10 mg/kg, po. On the set-up: time < 24 hr, dose 10 mg/kg, route oral. The conditions noted are these: plasma. It counts as ADME, organism-based.
Series [7] can be described thus: Protein binding in rat plasma assessed as total and protein free fraction concentration at 10 ug/ML after 150 mins by ultracentrifugation method. It counts as ADME, cell-free. The settings on record: read-out: PPB (converted).
For series [8], the system named is THP-1. As to the kind of experiment: Anti-foam cell formation activity in human THP1 cells assessed as inhibition of esterified cholesterol accumulation after 24 hrs in presence of albumin. It is filed as functional.
Another series deals with Mus musculus. Briefly: Inhibition of hepatic cholesterol secretion in ICR mouse at 10 mg/kg, po after 3 hrs by enzymatic method. It counts as functional.

The IC50 is the concentration needed to halve the response being measured. Consider `CCCCCCCCN1CCc2c(C)cc(C)c(NC(=O)C(C)(C)C)c21`, for which the half-inhibitory concentration (IC50) in the series with THP-1 [1] was 0.29 µM.
For the compound `CCCCN1CCc2c(C)cc(C)c(NC(=O)C(C)(C)C)c21`, the 50% inhibitory concentration (IC50) was determined as 0.22 µM in series [2] and 1.1 µM in the series with THP-1 [1].
As for `CCCCCCCCCCN1CCc2c(C)c(CC(=O)O)c(C)c(NC(=O)C(C)(C)C)c21`, the values for the IC50 (in [2]; in the series with THP-1 [1]) were 0.91 µM and 0.98 µM, respectively.
On the same counts, the results for `COCCN1CCc2c(C)c(NS(C)(=O)=O)c(C)c(NC(=O)C(C)(C)C)c21` are 0.27 µM and 1.6 µM.
The like results for `CCCN1CCCc2c(C)c(NS(C)(=O)=O)c(C)c(NC(=O)C(C)(C)C)c21` were, in that order, 0.13 µM and 0.29 µM.
For orientation: Cmax means the peak of the concentration-time curve. As a reminder, the Tmax is the time from dosing to the highest level. As usually defined, the half-life is the time in which the quantity being followed falls by half. A high value points to slow decline. For orientation: AUC(0-t) means exposure summed from dosing to a finite time, without extrapolation to infinity. In the case of `CCN1CCc2c(C)c(NS(C)(=O)=O)c(C)c(NC(=O)C(C)(C)C)c21`, in [3], the Cmax came out at 2.9 µg/mL. In addition, in [4], the Tmax worked out at 0.5 h. Further, the half-life in series [5] was 2.59 h. The same compound displayed an AUC(0-t) at 24 h in series [6] of 10.8 µg·h/mL.
For `Cc1c2c(c(NC(=O)C(C)(C)C)c(C)c1NS(C)(=O)=O)N(C)CC2`, the figures for the IC50 (in series [2]; with THP-1 [1]) were 8.8 µM and 7.5 µM, respectively.
On the same counts, the results for `CCCCCCCCCCCN1CCc2c(C)c(CC(=O)O)c(C)c(NC(=O)C(C)(C)C)c21` are 0.96 µM and 0.85 µM.
On to `CCOCCN1CCc2c(C)c(NS(C)(=O)=O)c(C)c(NC(=O)C(C)(C)C)c21`, for which the figures for the IC50 (in [2]; in the series on THP-1 [1]) were 0.31 µM and 0.82 µM, respectively.
On the same counts, the results for `CCCCN1CCc2c(C)c(NS(C)(=O)=O)c(C)c(NC(=O)C(C)(C)CC)c21` are 0.053 µM and 0.045 µM.
The like results for `CCCCCCCCN1CCc2c(C)c(CC(=O)O)c(C)c(NC(=O)C(C)(C)C)c21` were, in that order, 2.3 µM and 2 µM.
As a reminder, the inhibition in vivo is the relative decrease from the control value, in per cent. Low readings indicate little suppression, high ones strong suppression. Consider `CCCCCCCCN1CCc2c(C)c(CC(=O)O)c(C)c(NC(=O)C(C)(C)C)c21` [PACTIMIBE], for which, in [7], the fraction unbound at […], 10 ug/mL is 0.021. Moreover, the “fold change (FC)” value in the series with THP-1 [8] amounted to 10. Also, the inhibition in vivo at 10 mg/kg with Mus musculus came to 28%. The compound also yielded a Cmax in [3] of 0.8 µg/mL. Also, the time to peak (Tmax) in series [4] was found to be 0.67 h. Further, in [5], the half-life was 7.37 h. In series [6], this compound yielded an AUC(0-t) at 24 h of 2.8 µg·h/mL.
